# Measurements: ChEMBL document CHEMBL1136901, “Crown-capped imidacloprid: a novel design and insecticidal activity” (Bioorg Med Chem Lett, 2009)
# Tests used:
# [1] = test system: Musca domestica; test: Insecticidal activity against Musca domestica Takatsuki assessed as mortality injected into thorax measured after 24 hrs; format: functional
# [2] = test system: Musca domestica; test: Toxicity against Musca domestica Takatsuki assessed as neurological side effects at 1100 ng; format: functional, organism-based
# [3] = Octanol-water partition coefficient, log P of the compound; format: physicochemical
# [4] = test system: Musca domestica; test: Insecticidal activity against Musca domestica Takatsuki assessed as mortality at 15 ug applied topically; format: functional
# [5] = test system: Musca domestica; test: Insecticidal activity against Musca domestica Takatsuki in presence of metabolic inhibitor propyl 2-propynyl phenylphosphate; format: functional
smiles,measurement,setting,value
O=[N+]([O-])/N=C1\NCCN1Cc1ccc(Cl)nc1 [IMIDACLOPRID],LD50,[1],84 ng
c1ccc2c(c1)OCCOCCOCCOCCO2,Activity,[2],Not toxic
O=[N+]([O-])/N=C1\N(Cc2ccc(Cl)nc2)CCN1Cc1ccc2c(c1)OCCOCCOCCOCCOCCO2,logP,[3],0.28
same,Activity,[4],38%
same,Activity,[5],4.3 ng
same,LD50,[1],17 ng
c1ccc2c(c1)OCCOCCOCCOCCOCCO2,Activity,[2],Not toxic
O=[N+]([O-])/N=C1\N(Cc2ccc(Cl)nc2)CCN1Cc1ccc2c(c1)OCCOCCOCCOCCO2,logP,[3],0.15
same,Activity,[4],44%
same,Activity,[5],4.8 ng
same,LD50,[1],25 ng
